In patent publication US20050049186A1, “Peptides mimicking the biological activity of steroid hormones and their uses” (priority 2000, published 2005):
Like-named read-outs stand apart in the source and are kept apart here. Peptide text beside a SMILES is read from it.

Legend:
[1] = test system: creatine kinase (CK) specific activity in rat tissues; assay: Stimulation of creatine kinase specific activity in rat tissues in vivo
Protocol: The control goups received 0.5 ml saline containing 0.5% ethanol or tris-saline alone. The various organs were assayed for CK activity four hours after treatment.

ER α = biological target: T1, ER α (Homo sapiens, UniProt P03372); assay: Receptor binding assay for estrogen receptor alpha; details: for recognition of / binding activity to estrogen receptor α: summary of Tables 3 to 5
T1 sequence (P03372 1-595): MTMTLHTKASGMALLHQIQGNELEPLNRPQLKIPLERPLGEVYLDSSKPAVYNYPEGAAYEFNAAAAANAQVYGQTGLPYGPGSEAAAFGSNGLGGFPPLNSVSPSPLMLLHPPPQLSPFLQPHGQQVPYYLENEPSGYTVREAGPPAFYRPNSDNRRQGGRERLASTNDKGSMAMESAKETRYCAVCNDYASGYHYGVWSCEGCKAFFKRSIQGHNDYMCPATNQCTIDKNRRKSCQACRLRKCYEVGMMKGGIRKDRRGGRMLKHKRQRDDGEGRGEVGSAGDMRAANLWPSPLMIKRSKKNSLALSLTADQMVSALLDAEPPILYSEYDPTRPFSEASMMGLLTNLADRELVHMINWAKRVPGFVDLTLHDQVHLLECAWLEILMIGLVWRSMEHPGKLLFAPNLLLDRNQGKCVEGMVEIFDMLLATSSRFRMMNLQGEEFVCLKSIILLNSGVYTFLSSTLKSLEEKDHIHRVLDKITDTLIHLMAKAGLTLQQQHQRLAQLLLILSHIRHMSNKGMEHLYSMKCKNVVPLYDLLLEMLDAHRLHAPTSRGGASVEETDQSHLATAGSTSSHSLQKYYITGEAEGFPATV

ER β = ER β (Homo sapiens, UniProt Q92731); assay: Receptor binding assay for estrogen receptor beta; details: for IC50 to ERβ / IC50: Table 5; for recognition of / binding activity to estrogen receptor β: summary of Tables 3 to 5; for IC50: read-out: IC50 to ERβ
[2] = biological target: anti-estradiol mAb clone 15; assay: Competitive immunoassay: inhibition of binding of labeled E2 (estradiol ovalbumin europium conjugate) to anti-E2 clone 15; parameters: species or system mouse; details: for IC50: Table 5, estradiol ovalbumin europium conjugate; for inhibition of the binding of estradiol ovalbumin europium conjugate to anti-E2 mAb clone 15 relative to peptides 1 and 2: compared with the linear or cyclic peptides 1 and 2; for inhibition of binding of estradiol ovalbumin europium conjugate to anti-estradiol mAb clone 15: text summary of Table 4
Source text: […]. The linear peptide 1 is 15-amino acid long. We further explored the possibility whether smaller peptides derived from peptide 1 may have antibody binding activity and receptor binding activity. In order to find out the minimum amino acid sequence required in the linear peptide 1 for antibody and receptor binding, several peptides with varying length of from 4 to 14 amino acids long were synthesized, and were first evaluated in terms of binding to anti-estradiol (E2) mAb clone 15. The peptides showing similar or better antibody binding activity than the linear peptide 1 were further evaluated in terms of binding to ERα and β.

[3] = immature female rats, four hours after treatment, estradiol 5 μg/rat, peptides and raloxifene 0.5 mg/rat, mean ± S.E.M., n=15
[4] = Table 5, read-out: IC50 to ER α

Chain of ER β (Q92731 whole entry, species assumed): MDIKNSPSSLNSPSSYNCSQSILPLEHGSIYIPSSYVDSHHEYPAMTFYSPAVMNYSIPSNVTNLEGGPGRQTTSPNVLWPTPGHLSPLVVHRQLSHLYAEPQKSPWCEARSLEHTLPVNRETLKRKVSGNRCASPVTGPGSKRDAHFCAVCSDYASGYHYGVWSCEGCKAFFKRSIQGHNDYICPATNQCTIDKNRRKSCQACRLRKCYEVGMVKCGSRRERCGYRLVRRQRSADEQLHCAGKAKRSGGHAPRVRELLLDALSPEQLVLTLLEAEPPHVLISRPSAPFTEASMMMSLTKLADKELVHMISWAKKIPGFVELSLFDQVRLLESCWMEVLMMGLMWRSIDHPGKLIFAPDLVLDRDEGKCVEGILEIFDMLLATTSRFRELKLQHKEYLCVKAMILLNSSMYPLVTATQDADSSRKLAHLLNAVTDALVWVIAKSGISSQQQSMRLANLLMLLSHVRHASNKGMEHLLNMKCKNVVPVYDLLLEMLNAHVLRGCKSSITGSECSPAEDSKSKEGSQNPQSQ

Row | Molecule | IC50 to ERβ (ER β) | IC50 to ER α (ER α; Table 5) | recognition of / binding activity to estrogen receptor α (ER α) | recognition of / binding activity to estrogen receptor β (ER β) | IC50 [2] | inhibition of the binding of estradiol ovalbumin europium conjugate to anti-E2 mAb clone 15 relative to peptides 1 and 2 [2] | IC50 (ER β) | other results
1 | C[C@]12CC[C@@H]3c4ccc(O)cc4CC[C@H]3[C@@H]1CC[C@@H]2O [Estradiol, estradiol] | – | – | – | – | – | – | – | Creatine kinase specific activity (Experimental/control), Aorta [1, 3]: 2.0 ± 0.18; Creatine kinase specific activity (Experimental/control), Diapysis [1, 3]: 1.87 ± 0.1; Creatine kinase specific activity (Experimental/control), Epipysis [1, 3]: 1.37 ± 0.07; Creatine kinase specific activity (Experimental/control), Uterus [1, 3]: 1.37 ± 0.07
2 | CC(C)C[C@@H]1NC(=O)[C@H](C)NC(=O)[C@@H]2CCCN2C(=O)[C@H](CC(C)C)NC(=O)[C@H](CCC(=O)O)NC(=O)[C@H](C)NC(=O)[C@@H](N)CSSC[C@@H](C(=O)O)NC(=O)[C@@H]2CCCN2C(=O)[C@@H]2CCCN2C(=O)[C@@H]2CCCN2C(=O)[C@@H]2CCCN2C(=O)[C@H](CCCCN)NC(=O)[C@H]([C@@H](C)O)NC(=O)[C@H](CCC(=O)O)NC(=O)[C@H](Cc2ccccc2)NC(=O)[C@H](Cc2ccccc2)NC(=O)[C@H](Cc2c[nH]c3ccccc23)NC(=O)[C@H](CCCNC(=N)N)NC(=O)[C@H](CCCCN)NC(=O)[C@H]([C@@H](C)O)NC(=O)[C@@H]2CCCN2C(=O)[C@H](CC(=O)O)NC1=O [Peptide 2] (HELM PEPTIDE1{C.A.E.L.P.A.L.D.P.T.K.R.W.F.F.E.T.K.P.P.P.P.C}$PEPTIDE1,PEPTIDE1,1:R3-23:R3$$$V2.0; N-terminus and C-terminus assumed) | none | – | – | – | – | – | – | IC50 (ER α; FIG. 2, read-out: IC50, binding to ER α): 100000 nM
3 | NCCCC[C@H](N)C(=O)N[C@@H](CO)C(=O)N[C@@H](Cc1c[nH]c2ccccc12)C(=O)N[C@@H](Cc1ccccc1)C(=O)N[C@@H](Cc1ccccc1)C(=O)N[C@@H](CCC(=O)O)C(=O)O [Peptide 19, KSWFFE] (H-KSWFFE-OH; N-terminus and C-terminus assumed) | None | None | did not show any binding activity | did not show any binding activity | 40 nM | one and half order of magnitude better | – | –
4 | NCCCC[C@H](N)C(=O)N1CCC[C@H]1C(=O)N[C@@H](Cc1c[nH]c2ccccc12)C(=O)N[C@@H](Cc1ccccc1)C(=O)N[C@@H](Cc1ccccc1)C(=O)N[C@@H](CCC(=O)O)C(=O)O [Peptide 21, KPWFFE] (H-KPWFFE-OH) | – | – | recognized | recognized | 45 nM | one and half order of magnitude better | > 500000 nM | –
5 | CC(C)[C@H](N)C(=O)N[C@@H](CCCNC(=N)N)C(=O)N[C@@H](Cc1c[nH]c2ccccc12)C(=O)N[C@@H](Cc1ccccc1)C(=O)N[C@@H](Cc1ccccc1)C(=O)N[C@@H](CCC(=O)O)C(=O)O [Peptide 39, VRWFFE] (H-VRWFFE-OH) | – | – | – | – | – | – | < 100000 nM | IC50 (ER α; [4]): < 100000 nM
6 | N=C(N)NCCC[C@H](NC(=O)[C@@H](N)CCCCN)C(=O)N[C@@H](Cc1c[nH]c2ccccc12)C(=O)N[C@@H](Cc1ccccc1)C(=O)N[C@@H](Cc1ccccc1)C(=O)N[C@@H](CCC(=O)O)C(=O)O [Peptide 44, KRWFFE] (H-KRWFFE-OH) | – | – | recognized | recognized | 35 nM | one and half order of magnitude better | 400000 nM | IC50 (ER α; [4]): 400000 nM
7 | C[C@H](N)C(=O)N[C@@H](CCCNC(=N)N)C(=O)N[C@@H](Cc1c[nH]c2ccccc12)C(=O)N[C@@H](Cc1ccccc1)C(=O)N[C@@H](Cc1ccccc1)C(=O)N[C@@H](CCC(=O)O)C(=O)O [Peptide A-43, ARWFFE] (H-ARWFFE-OH) | None | – | recognized only the estrogen receptor α | not β | 40 nM | one and half order of magnitude better | – | inhibition of binding of estradiol ovalbumin europium conjugate to anti-estradiol mAb clone 15 [2]: showed inhibition
8 | C[C@H](NC(=O)[C@@H](N)CCCCN)C(=O)N[C@@H](Cc1c[nH]c2ccccc12)C(=O)N[C@@H](Cc1ccccc1)C(=O)N[C@@H](Cc1ccccc1)C(=O)N[C@@H](CCC(=O)O)C(=O)O [Peptide A-44, KAWFFE] (H-KAWFFE-OH) | – | – | recognized | recognized | 40 nM | one and half order of magnitude better | 250000 nM | IC50 (ER α; [4]): 250000 nM; inhibition of binding of estradiol ovalbumin europium conjugate to anti-estradiol mAb clone 15 [2]: showed inhibition
9 | O=C(c1ccc(OCCN2CCCCC2)cc1)c1c(-c2ccc(O)cc2)sc2cc(O)ccc12 [Raloxifene, raloxifene] | – | – | – | – | – | – | – | Creatine kinase specific activity (Experimental/control), Aorta [1, 3]: 1.63 ± 0.04; Creatine kinase specific activity (Experimental/control), Diapysis [1, 3]: 1.75 ± 0.13; Creatine kinase specific activity (Experimental/control), Epipysis [1, 3]: 1.41 ± 0.05; Creatine kinase specific activity (Experimental/control), LV (left ventricle) [1, 3]: 1.34 ± 0.11; Creatine kinase specific activity (Experimental/control), Uterus [1, 3]: 0.99 ± 0.17; blocking of the increase in CK activity caused by estradiol or peptides 1 and 2 ([1]; rats treated with combination with raloxifene): blocked in all the tissues with the exception of the epiphysis
10 | WFFE [Peptide 46] | – | – | did not show any inhibition | – | – | – | – | –

Second part, led by results:

Row | IC50 to ERβ (ER β) | IC50 to ER α (ER α; Table 5) | recognition of / binding activity to estrogen receptor α (ER α) | recognition of / binding activity to estrogen receptor β (ER β) | IC50 [2] | inhibition of the binding of estradiol ovalbumin europium conjugate to anti-E2 mAb clone 15 relative to peptides 1 and 2 [2] | IC50 (ER β) | Molecule | other results
11 | None | None | did not show any binding activity | did not show any binding activity | 6 nM | one and half order of magnitude better | – | CC(C)[C@H](N)C(=O)N1CCC[C@H]1C(=O)N[C@@H](Cc1c[nH]c2ccccc12)C(=O)N[C@@H](Cc1ccccc1)C(=O)N[C@@H](Cc1ccccc1)C(=O)N[C@@H](CCC(=O)O)C(=O)O [Peptide B33, VPWFFE] (H-VPWFFE-OH; N-terminus and C-terminus assumed) | –
12 | – | – | recognized | recognized | 6 nM | one and half order of magnitude better | 100000 nM | CC(C)[C@H](N)C(=O)N[C@@H](CO)C(=O)N[C@@H](Cc1c[nH]c2ccccc12)C(=O)N[C@@H](Cc1ccccc1)C(=O)N[C@@H](Cc1ccccc1)C(=O)N[C@@H](CCC(=O)O)C(=O)O [Peptide B34, VSWFFE] (H-VSWFFE-OH) | IC50 (ER α; [4]): 250000 nM
13 | None | None | did not show any binding activity | did not show any binding activity | 6 nM | one and half order of magnitude better | – | CC(C)[C@H](N)C(=O)N[C@@H](CCCNC(=N)N)C(=O)N[C@@H](Cc1c[nH]c2ccccc12)C(=O)N[C@@H](Cc1ccccc1)C(=O)N[C@@H](Cc1ccc(O)cc1)C(=O)N[C@@H](CCC(=O)O)C(=O)O [Peptide B35, VRWFYE] (H-VRWFYE-OH; N-terminus and C-terminus assumed) | –
14 | – | None | – | recognized only the ERβ | 20 nM | one and half order of magnitude better | 250000 nM | CC[C@H](C)[C@H](N)C(=O)N[C@@H](CCCNC(=N)N)C(=O)N[C@@H](Cc1c[nH]c2ccccc12)C(=O)N[C@@H](Cc1ccccc1)C(=O)N[C@@H](Cc1ccccc1)C(=O)N[C@@H](CCC(=O)O)C(=O)O [Peptide B37, IRWFFE] (H-IRWFFE-OH) | –
15 | None | None | did not show any binding activity | did not show any binding activity | 40 nM | one and half order of magnitude better | – | CC(C)C[C@H](N)C(=O)N[C@@H](CCCNC(=N)N)C(=O)N[C@@H](Cc1c[nH]c2ccccc12)C(=O)N[C@@H](Cc1ccccc1)C(=O)N[C@@H](Cc1ccccc1)C(=O)N[C@@H](CCC(=O)O)C(=O)O [Peptide B38, LRWFFE] (H-LRWFFE-OH; N-terminus and C-terminus assumed) | –
